{"source": "patent US10357483B2", "about": "“Methods comprising dosing combinations for reducing undesired humoral immune responses” (Selecta Biosciences, Inc., priority 2013, dated 2019)", "molecules": {"B1": {"name": "pOVA: immunogenic form of particulate Ovalbumin (protein, UniProt P01012 2-386, looked up)", "Ovalbumin": "GSIGAASMEFCFDVFKELKVHHANENIFYCPIAIMSALAMVYLGAKDSTRTQINKVVRFDKLPGFGDSIEAQCGTSVNVHSSLRDILNQITKPNDVYSFSLASRLYAEERYPILPEYLQCVKELYRGGLEPINFQTAADQARELINSWVESQTNGIIRNVLQPSSVDSQTAMVLVNAIVFKGLWEKAFKDEDTQAMPFRVTEQESKPVQMMYQIGLFRVASMASEKMKILELPFASGTMSMLVLLPDEVSGLEQLESIINFEKLTEWTSSNVMEERKIKVYLPRMKMEEKYNLTSVLMAMGITDVFSSSANLSGISSAESLKISQAVHAAHAEINEAGREVVGSAEAGVDAASVSEEFRADHPFLFCIKHIATNAVLFFGRCVSP", "modifications": "particulate form", "notes": "immunogenic form of particulate Ovalbumin"}}, "key": {"HuTNFαTg [1]": {"test_system": "HuTNFαTg", "assay": "Anti-HUMIRA antibody titers in arthritic animals (Example 14)", "type": "in vivo", "conditions": "HUMIRA s.c. weekly weeks 5-10; 0.87 mg nanoparticles with 60 μg Humira for first 3 injections", "experimental": "Anti-HUMIRA immune and neutralizing responses in arthritic animals were evaluated. Transgenic animals overexpressing human tumor necrosis factor alpha (huTNFαTg) develop progressive rheumatoid arthritis over the course of 20 weeks from birth. This process can be prevented by using the fully human anti-human TNFα antibody Adalimumab or HUMIRA. However repetitive administration of the initial therapeutic dose of HUMIRA (60 μg) leads to anti-drug antibody formation (ADA) that neutralizes the therapeutic benefit. Higher quantities of Humira (200 μg can be injected to overcome this antagonizing immune response to allow for the therapeutic effect of Humira. Age-matched HuTNFαTg 5 week old female animals were either injected s.c. in the subscapular area with saline (PBS) or 60 μg or 200 μg of HUMIRA weekly (weeks 5-10) or with a mixture of 60 μg of Humira and 0.87 mg of tolerogenic nanoparticles (first dosings) for the first 3 injections (week 5 to 7 of age) followed by 3 weekly injections of HUMIRA alone (same amounts) (second dosings) (weeks 8 to 10 of age). The results in FIG. 11 (left panel) show the antibody titers in the blood of all animals at different time points. […] FIG. 12 illustrates the dosing regimen."}, "HuTNFαTg [2]": {"test_system": "HuTNFαTg", "assay": "Arthritis scores of limbs in arthritic animals (Example 14)", "type": "in vivo", "conditions": "HUMIRA s.c. weekly weeks 5-10; nanocarriers with first 3 injections", "experimental": "Age-matched HuTNFαTg 5 week old female animals were either injected s.c. in the subscapular area with saline (PBS) or 60 μg or 200 μg of HUMIRA weekly (weeks 5-10) or with a mixture of 60 μg of Humira and 0.87 mg of tolerogenic nanoparticles (first dosings) for the first 3 injections (week 5 to 7 of age) followed by 3 weekly injections of HUMIRA alone (same amounts) (second dosings) (weeks 8 to 10 of age). The results in FIG. 11 (left panel) show the antibody titers in the blood of all animals at different time points. […] FIG. 12 illustrates the dosing regimen."}, "C57BL/6 [3]": {"test_system": "C57BL/6", "assay": "Anti-HUMIRA antibody titers in blood", "type": "in vivo, mice", "conditions": "day 21; 60 μg HUMIRA s.c. weekly; 0.9 mg nanocarrier admixed on day 0 only", "experimental": "Control C57BL/6 age-matched (5-6 weeks) females were injected subcutaneously (s.c.) in the front limbs with 60 μg of HUMIRA once a week until day 29 (on d0, 7, 14, 22, 29, across all groups and conditions). […] The results presented in FIG. 3A show the antibody titers in the blood of all animals at day 21. […] At day 29, the animals received another challenge in one hind limb (a further second dosing) while the other hind limb received saline in order to test the local antibody-mediated type I hypersensitivity response. For this, the thickness of the hind limbs were measured with the help of a caliper one hour after the injection."}, "huTNFaTg [4]": {"test_system": "huTNFaTg", "conditions": "such a mouse model; Binder et al. 2013; cited from earlier work"}, "huTNFaTg [5]": {"test_system": "huTNFaTg", "assay": "Anti-HUMIRA antibody titers in arthritic animals (Example 9)", "type": "in vivo, mice", "conditions": "60 μg HUMIRA s.c. weekly; 0.87 mg nanocarriers with first 7 injections; FIG. 9A day 21", "experimental": "(§1) Transgenic animals overexpressing human tumor necrosis factor alpha (huTNFaTg) develop progressive rheumatoid arthritis over the course of 20 weeks from birth. This process can be prevented by using the fully human anti-human TNFα antibody HUMIRA/adalimumab. However, repetitive administration of the initial therapeutic dose of HUMIRA (60 μg) leads to anti-drug antibody formation (ADA) that neutralizes the therapeutic benefit. Only very high doses can then maintain the therapeutic benefit and surmount the neutralizing immune response. For example, it is thought that about 200 μg is needed to effect maximal inhibition of inflammation in an example of such a mouse model (Binder et al., Arthritis & Rheumatism, Vol. 65 (No. 3), March 2013, pp. 608-617).\n(§2) The results in FIG. 9A show the antibody titers in the blood of all animals at day 21."}, "huTNFaTg [6]": {"test_system": "huTNFaTg", "assay": "Arthritis scores of limbs in arthritic animals (Example 9)", "type": "in vivo, mice", "conditions": "60 μg HUMIRA s.c. weekly, weeks 5 to 15 of age; 0.87 mg nanocarriers with first 7 injections", "experimental": "as §1, §2"}, "C57BL/6 [7]": {"test_system": "C57BL/6", "assay": "Anti-KRYSTEXXA IgM antibody titers", "type": "in vivo, mice", "conditions": "0.9 mg nanocarriers + 40 μg KRYSTEXXA i.v. days −21 and −14; then 100 μg KRYSTEXXA + 20 μg CpG s.c. day 0 to 28", "experimental": "All animals received weekly injections from day 0 to day 28 of 100 μg of KRYSTEXXA combined with 20 μg of CpG s.c. in the hind limb (d0, 7, 12, 28)."}, "C57BL/6 [8]": {"test_system": "C57BL/6", "assay": "Anti-OVA and anti-KLH IgG antibody titers (Example 7)", "type": "in vivo, mice", "conditions": "day 54; pOVA 2.5 μg i.v. weekly; 0.2 mg nanocarriers admixed days 0, 7, 14", "experimental": "The control group of C57BL/6 age-matched (5-6 weeks) female were injected i.v. in the tail vein with 2.5 μg of an immunogenic form of particulate Ovalbumin (pOVA) and 2 μg of Keyhole Limpet Hemocyanin (KLH) s.c. in the hind limb once a week for 49 days (d0, 7, 14, 20, 28, 35, 42, 49)."}}, "data": [{"molecule": "adalimumab [HUMIRA]", "values": [{"measurement": "anti-HUMIRA antibody titers", "setting": "HuTNFαTg [1]", "value": "robust anti-HUMIRA antibody response"}, {"measurement": "arthritis scores (disease progression)", "setting": "HuTNFαTg [2]", "value": "significant blockade of the disease progression"}, {"measurement": "anti-HUMIRA antibody titers", "setting": "C57BL/6 [3]", "value": "robust antibody response against HUMIRA"}, {"measurement": "dose needed to effect maximal inhibition of inflammation", "setting": "huTNFaTg [4]", "value": "about 200 μg"}, {"measurement": "anti-HUMIRA antibody titers", "setting": "huTNFaTg [5]", "value": "robust antibody response"}, {"measurement": "arthritis scores (disease progression)", "setting": "huTNFaTg [6]", "value": "significant blockade of the disease progression"}]}, {"molecule": "pegloticase [KRYSTEXXA]", "values": [{"measurement": "anti-KRYSTEXXA IgM antibody titers", "setting": "C57BL/6 [7]", "value": "develop an immune response against KRYSTEXXA"}]}, {"molecule": "B1", "values": [{"measurement": "anti-OVA IgG antibody titers", "setting": "C57BL/6 [8]", "value": "robust immune response against OVA and KLH"}]}]}
